These compounds were tested on murine spleen lymphocytes (assay: Cytokine stimulation of murine spleen lymphocytes, ELISA). Conditions: Lymphocyte; mouse immune cells (spleen lymphocytes), 24 hrs, ELISA; read-out: IFN-gamma EC50 of cytokine stimulating activity.
Format: cell-based
Protocol: The stimulating effect of a series of GY compounds or drugs on murine spleen lymphocytes was detected by ELISA.
6-week-old Balb/c mice were sacrificed by cervical dislocation, spleens were taken under aseptic conditions. A 1 mL sterile syringe and a 200 mesh cell strainer were adopted to quickly grind and disperse the spleen into individual cells in 4 mL of a murine lymphocyte separation solution (Dakko's, 7211011). A resulting cell homogenate was transferred to a 15 mL centrifuge tube, then 1 mL of a RPMI 1640 medium (Hyclone, SH30809.01) was slowly added. Spleen lymphocytes were separated by a density gradient centrifugation method (800×g, 30 min), washed, red blood cells therein were lysed, such that a dispersed spleen lymphocyte suspension was obtained. Cells were counted by a hemocytometer, to calculate the cell concentration. A RPMI 1640 complete medium was adopted to adjust the cell suspension to a concentration of 1×10^6/ml/well, and the cells were then plated on a 24-well cell culture plate (Corning, 3524).
Murine spleen lymphocytes were stimulated according to the gradient concentrations of the series of GY compounds or drugs, and incubated in a 37° C., 5% carbon dioxide incubator for 24 hrs.
• (1) Coating: a Capture antibody (primary antibody, purchased from Invitrogen) was diluted with a 1×Coating Buffer (coating buffer, purchased from Invitrogen) to a recommended concentration, and 100 μL of a resulting diluted solution was added to each well of a 96-well microtiter plate, the plate was sealed with a sealing film at 4° C. overnight. • (2) Washing: a liquid in each well was discarded, then 300 μL of a PBST working solution was added to each well and kept for 1 min, thereafter, the liquid therein was discarded. The washing process was repeated 3 times. • (3) Blocking: 200 μL of a blocking solution was added to each well. The plate was sealed with a sealing film, and placed on a shaker and incubated at room temperature for 1 hr, then washed and patted to be dry. • (4) Sample incubation: a sample was collected and centrifuged to collect a supernatant. Standards, samples, negative controls, and blank controls were provided in the 96-well microtiter plate, and each concentration or sample were provided with 2 replicates. 100 μL of a standard or sample was added to each well, thereafter, the plate was sealed with a sealing film, incubated on a shaker at room temperature for 1 hr or overnight at 4° C., then washed and pated to be dry. • (5) Secondary antibody incubation: the detection antibody (secondary antibody, purchased from Invitrogen) was diluted to a recommended concentration with a dilution buffer, 100 μL of a secondary antibody was added to each well. After being sealed with a sealing film, the plate was incubated on a shaker at room temperature for 1 hr, then washed and patted to be dry. • (6) Avidin-HRP incubation: Avidin-HRP (horseradish peroxidase marker, purchased from Invitrogen) was diluted to the recommended concentration with a dilution buffer, 100 μL of Avidin-HRP was added to each well. After being sealed with a sealing film, the plate was placed on a shaker and incubated at room temperature for 30 mins, washed 5-7 times by the process of step 2), and patted to be dry. • (7) TMB color development: 100 μL of a TMB color development solution (purchased from Invitrogen) was added to each well, for carrying out reaction for 15 mins at room temperature in the dark. • (8) Stopping reaction: 50 μL of 1M H2SO4 solution was added to each well. • (9) Reading an absorbance value by a microplate reader: the OD value at 450 nm wavelength was read. A standard curve and a parameter nonlinear regression equation were drawn, and a sample concentration was calculated according to the obtained formula.

Compound | EC50 [nM]
CCCCOc1nc(N)c2nc(O)n(Cc3cn(CCCCN4CCN(CCCNC(=S)N5CCCC(n6nc(-c7ccc(Oc8ccccc8)cc7)c7c(N)ncnc76)C5)CC4)nn3)c2n1 (stereo not drawn) [GY161] | 1530
CCCCOc1nc(N)c2nc(O)n(Cc3cn(CCOCCOCCOCCNC(=S)N4CCCC(n5nc(-c6ccc(Oc7ccccc7)cc6)c6c(N)ncnc65)C4)nn3)c2n1 (stereo not drawn) [GY112] | 8300
CCCCOc1nc(N)c2nc(O)n(Cc3cn(CCOCCOCCOCCNC(=S)Nc4cc(Nc5nccc(-c6cn(C)c7ccccc67)n5)c(OC)cc4N(C)CCN(C)C)nn3)c2n1 [GY127] | 753

Same assay, conditions: Lymphocyte; mouse immune cells (spleen lymphocytes), 24 hrs, ELISA; read-out: IL-6 EC50 of cytokine stimulating activity

Compound | EC50 [nM]
CCCCOc1nc(N)c2nc(O)n(Cc3cn(CCCCN4CCN(CCCNC(=S)N5CCCC(n6nc(-c7ccc(Oc8ccccc8)cc7)c7c(N)ncnc76)C5)CC4)nn3)c2n1 (stereo not drawn) [GY161] | 6
CCCCOc1nc(N)c2nc(O)n(Cc3cn(CCOCCOCCOCCNC(=S)N4CCCC(n5nc(-c6ccc(Oc7ccccc7)cc6)c6c(N)ncnc65)C4)nn3)c2n1 (stereo not drawn) [GY112] | 314
CCCCOc1nc(N)c2nc(O)n(Cc3cn(CCOCCOCCOCCNC(=S)Nc4cc(Nc5nccc(-c6cn(C)c7ccccc67)n5)c(OC)cc4N(C)CCN(C)C)nn3)c2n1 [GY127] | 83

Same assay, conditions: Lymphocyte; mouse immune cells (spleen lymphocytes), 24 hrs, ELISA; read-out: TNF-alpha EC50 of cytokine stimulating activity

Compound | EC50 [nM]
CCCCOc1nc(N)c2nc(O)n(Cc3cn(CCCCN4CCN(CCCNC(=S)N5CCCC(n6nc(-c7ccc(Oc8ccccc8)cc7)c7c(N)ncnc76)C5)CC4)nn3)c2n1 (stereo not drawn) [GY161] | 11
CCCCOc1nc(N)c2nc(O)n(Cc3cn(CCOCCOCCOCCNC(=S)N4CCCC(n5nc(-c6ccc(Oc7ccccc7)cc6)c6c(N)ncnc65)C4)nn3)c2n1 (stereo not drawn) [GY112] | 914
CCCCOc1nc(N)c2nc(O)n(Cc3cn(CCOCCOCCOCCNC(=S)Nc4cc(Nc5nccc(-c6cn(C)c7ccccc67)n5)c(OC)cc4N(C)CCN(C)C)nn3)c2n1 [GY127] | 248
